In patent US20050085454A1, “Phenolic antioxidant-chromium complexes for treatment or prevention of type 2 diabetes or glucose intolerance” (NATREON INC., priority 2003, published 2005):

Tests used:
[1] = system: Steptozocine(STZ)-induced male albino rats; assay: Screening of antidiabetic activity, blood sugar lowering action; assay type: in vivo; conditions: 300 μg/Kg oral, 48 hr after STZ
[2] = system: rats with diabetes induced by chemical destruction of β-cells; conditions: 1% taurine in the drinking water; cited from earlier work
[3] = system: patients with coronary heart disease; conditions: 60 mg twice daily oral, after 8 weeks; cited from earlier work
patients with NIDDM = conditions: oral administration; cited from earlier work
[4] = system: STZ-induced diabetic rats; assay: Repairing damaged β-cells: treatment of STZ-induced diabetic rats for further 21 days; assay type: in vivo
Method: In another set of experiments, STZ-induced diabetic rats, after 21 days, were administered the invention test complex compounds: S-1 (50 mg/Kg, p.o.), S-2 (100 mg/Kg, p.o.), Chromium picolinate (100 mg/Kg, p.o.), Example-1A (100 mg/Kg., p.o.), per day for further 21 days. This experiment was conducted with a view to assessing the repair aspect of the damaged β-cells by the test compounds.

[5] = Effects on animal body weight in STZ-induced hyperglycemia; assay type: in vivo; conditions: STZ-treated rats, 100 mg/Kg oral
[6] = system: Steptozocine(STZ)-induced male Wistar rats; assay: Effect of high doses of the inventive complex, blood sugar over 21 days; assay type: in vivo; conditions: 100 mg/Kg oral (S-2: Cr3+ 1,000 μg/Kg; chromium picolinate: Cr3+ 700 μg/Kg), concurrently with STZ 40 mg/Kg s.c.
obese Zucker rat = conditions: dietary Vitamin E; cited from earlier work
GK rat = conditions: Vitamin E supplementation; cited from earlier work

In the case of Chromium polynicotinate [Example N-7], the “Fasting Serum Glucose (mg/dl) (mean ± SEM)” value ([1]; 3 days before and 2 days after STZ 50 mg/Kg i.v., 18 hr fasting) is reported as 141.30 ± 9.54 mg/dL and the “% Inhibition (of fasting serum glucose vs STZ)” value ([1]; 3 days before and 2 days after STZ) is reported as 58.25%.

For `NCCS(=O)(=O)O` [taurine], the renal oxidant injury [2] is listed as “reduced”.

For `COC1=C(OC)C(=O)C(C/C=C(\C)CC/C=C(\C)CC/C=C(\C)CC/C=C(\C)CC/C=C(\C)CC/C=C(\C)CC/C=C(\C)CC/C=C(\C)CC/C=C(\C)CCC=C(C)C)=C(C)C1=O` [coenzyme Q10], the “plasma levels of insulin (fasting and 2-hr), glucose, and lipid peroxides, as compared to the control group” value [3] is listed as “reduced”.

In the case of `O=C(O)CCCC[C@@H]1CCSS1` (racemic) [lipoic acid], the insulin-mediated glucose uptake (patients with NIDDM) is listed as “significantly increased”.

In the case of Chromium picolinate, the “% Change from day 1 (glucose)” value ([4]; 100 mg/Kg p.o. per day for 21 days, started 21 days after STZ, day 21 vs day 1) is reported as “+14 ↑ %”, the “Glucose (mg/dl) values; mean ± SE, day 1” value ([4]; 100 mg/Kg p.o. per day, started 21 days after STZ, day 1) is reported as 253.2 ± 7.7 mg/dL and the “Glucose (mg/dl) values; mean ± SE, day 7” value ([4]; 100 mg/Kg p.o. per day, started 21 days after STZ, day 7) is reported as 302.8 ± 18.0 mg/dL. The “Glucose (mg/dl) values; mean ± SE, day 14” value ([4]; 100 mg/Kg p.o. per day, started 21 days after STZ, day 14) was 294.3 ± 20.4 mg/dL, the “Glucose (mg/dl) values; mean ± SE, day 21” value ([4]; 100 mg/Kg p.o. per day, started 21 days after STZ, day 21) was 289.6 ± 9.0 mg/dL and the “effect on progressive increase in hyperglycemia (post STZ-treatment)” value ([4]; diabetic rats treated p.o. for 21 days) was “no beneficial effect”. For the same compound, the “Body Weight in gm, day 1” value ([5]; day 1) was 166 ± 8 gm, the “Body Weight in gm, day 7” value ([5]; day 7) was 180 ± 7 gm and the “Body Weight in gm, day 14” value ([5]; day 14) was 168 ± 9 gm. The “Body Weight in gm, day 21” value ([5]; day 21) was 172 ± 9 gm, the “Blood Sugar Values (Arterial Blood), day 7” value ([6]; day 7) was 88.7 ± 4.4 and the “Blood Sugar Values (Arterial Blood), day 14” value ([6]; day 14) was 94.3 ± 7.2. The “Blood Sugar Values (Arterial Blood), day 21” value ([6]; day 21) was 92.5 ± 3.5.

For Vitamin E, the “glucose-stimulated hyper-insulinemia and lipid peroxidation” value (obese Zucker rat) is listed as “significantly reduced” and the glycemic control (GK rat) is listed as “significantly improved”.
